The numbers were not newly measured in patent publication US20040170677A1, “Method of drug loading in liposomes by gradient” (priority 2002, published 2004), which cites them from elsewhere.

The conditions of this data set: patients receiving doses greater than 550 mg per square meter of body area.

Consider `COc1cccc2c1C(=O)c1c(O)c3c(c(O)c1C2=O)C[C@@](O)(C(=O)CO)C[C@@H]3O[C@H]1C[C@H](N)[C@H](O)[C@H](C)O1` [doxorubicin, Doxorubicin], for which the “irreversible cardiomyopathy leading to congestive heart failure, share of patients” value is 1-10%.
